Assay results: US10028941B2, “Composition for the management of nausea and vomiting” (DUCHESNAY INC., priority 2013, dated 2018)
Entries after “also recorded” stand apart in the source; their conditions may differ.

Assays:
[1] = Randomized controlled bioavailability study, three-way cross over, plasma PLP after treatments A, B, C; settings: for speed of increase / time of appearance of PLP in the plasma: given together with Doxylamine and Pyridoxine, R5P 40 mg, AUC 0-2 h
Method: The results depicted in FIGS. 2 and 3 were obtained from randomized controlled bioavailability studies in healthy women, which were carried out as follows.
To characterize the pharmacokinetic profile of Pyridoxal-5′-Phosphate (PLP) and to determine whether Riboflavin-5-phosphate (R5P), PLP or PYL in an immediate release formulation can be used to positively alter the kinetics of PLP compared to the current Diclectin® formulation (the current Diclectin® formulation is a delayed release formulation containing 10 mg Doxylamine succinate and 10 mg Pyridoxine-HCl).
Healthy female (n=12) participants between 18 and 45 years of age with a body mass index between 19 and 30 kg/m^2 were administered the treatments described below under empty stomach (fasted) conditions. Blood sampling was conducted extensively from 1 hour pre-administration until 24 hours post-administration. After a wash-out period of 21 days, dose administration and blood sampling was re-conducted as stated above. Doxylamine, Pyridoxine and Pyridoxine metabolites were measured using liquid chromatography-tandem mass spectrometry, as previously described (Nulman and Koren, Can J Clin Pharmacol Vol 16(3):e400-e406, 2009).
Three Way Cross Over Design.
Diclectin®: delayed release formulation containing 10 mg Doxylamine succinate and 10 mg Pyridoxine-HCl (PA-DR).
Immediate release: an oral solution of 20 mg Doxylamine succinate and 20 mg Pyridoxine-HCl (PA-IR).
Treatment group A: One (1) Diclectin® Tablet (current delayed release formulation of 10 mg Doxylamine and 10 mg Pyridoxine-HCl) plus an oral solution of 10 mg Doxylamine and 10 mg Pyridoxal HCl (immediate release) (PYL);
Treatment group B: One (1) Diclectin® Tablet (current delayed release formulation of 10 mg Doxylamine and 10 mg Pyridoxine-HCl) plus an oral solution of 10 mg Doxylamine and 10 mg Pyridoxal-5′-Phosphate (immediate release) (PLP);
Treatment group C: One (1) Diclectin® Tablet (current delayed release formulation of 10 mg Doxylamine and 10 mg Pyridoxine-HCl) plus an oral solution of 10 mg Doxylamine and 10 mg Pyridoxine HCl and 40 mg Riboflavin-5-phosphate (R5P) (immediate release).
Bioavailability; Tmax, Cmax and AUC0-t between each treatment. Doxylamine, and Pyridoxine and its metabolites were measured using liquid chromatography-tandem mass spectrometry, as previously described (Nulman and Koren, Can J Clin Pharmacol Vol 16 (3):e400-e406, 2009).

[2] = Another study with different doses of R5P (5, 10 or 20 mg), plasma PLP levels vs controls; format: in vivo, human
Method: In another study, different doses of R5P were tested: 5, 10 or 20 mg of R5P (i.e. equivalent to the formulations administered to Treatment group C above, with the exception that 5, 10 or 20 mg of R5P was used rather than 40 mg R5P; 8 healthy women for each dose), and the PLP levels were compared to those measured in control healthy women not administered with R5P (24 subjects, equivalent to Treatment group A above).

[3] = system: nausea and vomiting of pregnancy symptoms; assay: Randomized controlled efficacy trial of Diclectin vs placebo in pregnant women: plasma levels vs PUQE score; format: in vivo, human; settings: pregnant women treated with Diclectin for 14 days; FIG. 1
Method: A randomized controlled efficacy trial of Diclectin® vs. placebo in pregnant women was carried out as follows, with the results shown in FIG. 1.
To assess the plasma levels of Doxylamine and PLP and the severity of nausea and vomiting of pregnancy symptoms in pregnant women treated with Diclectin®.
The demographic and medical characteristics of the subjects are as described in Koren et al., Am J Obstet Gynecol 2010; 203(6):571.e1-7.
The study design is as described in Koren et al., 2010, supra. Briefly, a randomized, double-blind, multicenter placebo controlled trial studying pregnant women suffering from nausea and vomiting of pregnancy, analyzed by intention to treat. Women received Diclectin (n=131) or placebo (n=125) for 14 days. Nausea and vomiting of pregnancy symptoms were evaluated daily using the pregnancy unique quantification of emesis scale (PUQE-24, Ebrahimi et al., J Obstet Gynaecol Can. 2009 September; 31(9):803-7).

**Q.** Which “speed of increase / time of appearance of PLP in the plasma” value [1] does the source give for `Cc1ncc(CO)c(C=O)c1O` [PYL, Pyridoxal] here?
**A.** did not result in such improvement

**Q.** Which results are given for `Cc1cc2nc3c(=O)[nH]c(=O)nc-3n(C[C@H](O)[C@H](O)[C@H](O)COP(=O)(O)O)c2cc1C` [R5P, riboflavin-5-phosphate]?
**A.** inter-subject variations in PLP levels ([1]; administration of R5P): less inter-subject variations; time to reach steady-state PLP levels ([1]; administration of R5P): decreased time to reach steady-state PLP levels; speed of increase / time of appearance of PLP in the plasma [1]: faster increase in the plasma level of PLP; speed of increase / time of appearance of PLP in the plasma ([1]; listed as FMN): faster time of appearance in the plasma; PLP concentration (AUC) 0-12 h compared with Diclectin (PA-DR) ([1]; healthy women, fasted, one-way ANOVA, FIG. 2): did not increase PLP levels significantly; also recorded: does not significantly affect PLP levels; effect on PLP levels relative to controls ([2]; 5 mg R5P, 8 healthy women, controls without R5P): no significant effect; effect on PLP levels relative to controls ([2]; 10 mg R5P, 8 healthy women, controls without R5P): no significant effect; effect on pharmacokinetics of PLP relative to controls ([2]; 20 mg R5P, 8 healthy women, controls without R5P): some improvement in the pharmacokinetics of PLP; effect with 20 mg R5P compared with 40 mg R5P ([2]; 20 mg vs 40 mg R5P): lower

**Q.** For `CN(C)CCOC(C)(c1ccccc1)c1ccccn1` (stereo not drawn) [Doxylamine, reference compound], which “plasma concentration vs severity of NVP (PUQE score)” value [3] is on record?
**A.** correlates with a reduction in the severity of NVP

**Q.** With `Cc1ncc(COP(=O)(O)O)c(C=O)c1O` [PLP, Pyridoxal 5-phosphate] as the molecule, how does the “plasma concentration vs severity of NVP (PUQE score)” value [3] read?
**A.** correlates with a reduction in the severity of NVP
